Data taken from PubChem BioAssay AID328 (DTP/NCI, 2004).
Where “and” joins values, the source holds several entries; their conditions need not be identical. Equal values may be shown once. Inconclusive results and toxic doses are left out. Rule for the calls: active = survival T/C of 150% or more; inactive = T/C below 125% in these data.

Tested on: BDF1 mice, P388 leukemia ip, median survival T/C
Experiment: NCI In Vivo Anticancer Drug Screen. Data for tumor model P388 Leukemia (intraperitoneal) in B6D2F1 (BDF1) mice
Conditions: endpoint: median survival time, higher = longer survival
How it was run: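 Mice carrying the transplantable tumour receive compound or vehicle. Survival is followed in each arm, and the treated measure is divided by the vehicle measure.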

[1] = dose: 100.0 mg/kg/injection, schedule: Q04DX003 (ip), vehicle: Klucel (hydroxypropylcellulose) (HPC)
[2] = dose: 200.0 mg/kg/injection, schedule: Q04DX003 (ip), vehicle: Klucel (hydroxypropylcellulose) (HPC)
[3] = dose: 50.0 mg/kg/injection, schedule: Q01DX009 (ip), vehicle: saline with Tween-80
[4] = dose: 100.0 mg/kg/injection, schedule: Q01DX009 (ip), vehicle: saline with Tween-80
[5] = dose: 200.0 mg/kg/injection, schedule: Q01DX009 (ip), vehicle: saline with Tween-80
[6] = dose: 400.0 mg/kg/injection, schedule: Q04DX003 (ip), vehicle: Klucel (hydroxypropylcellulose) (HPC)
[7] = dose: 100.0 mg/kg/injection, schedule: Q04DX003 (ip), vehicle: saline
[8] = dose: 100.0 mg/kg/injection, schedule: Q01DX009 (ip), vehicle: saline
[9] = dose: 200.0 mg/kg/injection, schedule: Q01DX009 (ip), vehicle: saline
[10] = dose: 100.0 mg/kg/injection, schedule: Q01DX009 (ip), vehicle: Klucel (hydroxypropylcellulose) (HPC)
[11] = dose: 100.0 mg/kg/injection, schedule: Q04DX003 (ip), vehicle: saline with Tween-80
[12] = dose: 200.0 mg/kg/injection, schedule: Q04DX003 (ip), vehicle: saline with Tween-80
[13] = dose: 400.0 mg/kg/injection, schedule: Q04DX003 (ip), vehicle: saline with Tween-80
[14] = dose: 12.5 mg/kg/injection, schedule: Q01DX009 (ip), vehicle: saline
[15] = dose: 25.0 mg/kg/injection, schedule: Q01DX009 (ip), vehicle: saline

Measured: T/C

COc1ccc(/C=C(/C)[N+](=O)[O-])cc1OC
inactive: dose: 50.0 mg/kg/injection, schedule: Q01DX001 (ip), vehicle: saline with Tween-80 109 % of control | dose: 100.0 mg/kg/injection, schedule: Q01DX001 (ip), vehicle: saline with Tween-80 113 % of control | [1] 104 % of control | dose: 200.0 mg/kg/injection, schedule: Q01DX001 (ip), vehicle: saline with Tween-80 118 % of control | [2] 109 % of control

O=[N+]([O-])c1ccc(SC2=NCCN2)c(Cl)c1
inactive: [3] 94 % of control | [4] 103 % of control | [5] 112 % of control

Cc1ccccc1NC(=O)Nc1ccccc1C
inactive: dose: 0.37 mg/kg/injection, schedule: Q01DX009 (ip), vehicle: Klucel (hydroxypropylcellulose) (HPC) 88 % of control | dose: 0.75 mg/kg/injection, schedule: Q01DX009 (ip), vehicle: Klucel (hydroxypropylcellulose) (HPC) 100 % of control | dose: 1.5 mg/kg/injection, schedule: Q01DX009 (ip), vehicle: Klucel (hydroxypropylcellulose) (HPC) 107 % of control | [1] 104 % of control | [2] 95 % of control | [6] 109 % of control

NC(N)=N/N=C/C=N/N=C(N)N
inactive: [7] 100 % of control

O=C(Nc1ccccc1F)C12CC3CC(CC(C3)C1)C2
inactive: [3] 92 % of control | [4] 96 % of control | [5] 96 % of control

O=C(O)C1(NO)CCCC1
inactive: [8] 95 % of control | [9] 104 % of control

O=C(c1ccccc1)c1ccccc1C(=O)c1ccccc1
inactive: dose: 25.0 mg/kg/injection, schedule: Q01DX009 (ip), vehicle: Klucel (hydroxypropylcellulose) (HPC) 95 % of control | dose: 50.0 mg/kg/injection, schedule: Q01DX009 (ip), vehicle: Klucel (hydroxypropylcellulose) (HPC) 100 % of control | [10] 89 % of control and 91 % of control | [1] 109 % of control | [2] 104 % of control | [6] 118 % of control

OCCNc1ccc(I)cc1
inactive: dose: 100.0 mg/kg/injection, schedule: Q04DX003 (ip), vehicle: other 113 % of control | dose: 200.0 mg/kg/injection, schedule: Q04DX003 (ip), vehicle: other 122 % of control | dose: 400.0 mg/kg/injection, schedule: Q04DX003 (ip), vehicle: other 104 % of control

COc1c2c(c(OC)c3ccccc13)C(=O)c1ccccc1C2=O
inactive: dose: 25.0 mg/kg/injection, schedule: Q01DX005 (ip), vehicle: saline 115 % of control | dose: 50.0 mg/kg/injection, schedule: Q01DX005 (ip), vehicle: saline 87 % of control | dose: 100.0 mg/kg/injection, schedule: Q01DX005 (ip), vehicle: saline 95 % of control | dose: 200.0 mg/kg/injection, schedule: Q01DX005 (ip), vehicle: saline 93 % of control

CCOC(=O)C1CN(Cc2ccccc2)CCC1=O (stereo not drawn)
inactive: dose: 50.0 mg/kg/injection, schedule: Q01DX001 (ip), vehicle: saline 104 % of control | dose: 100.0 mg/kg/injection, schedule: Q01DX001 (ip), vehicle: saline 95 % of control | dose: 200.0 mg/kg/injection, schedule: Q01DX001 (ip), vehicle: saline 90 % of control

c1cnc2c3c(ccc2c1)CN(C12CC4CC(CC(C4)C1)C2)CO3
inactive: dose: 25.0 mg/kg/injection, schedule: Q04DX003 (ip), vehicle: saline with Tween-80 108 % of control | dose: 50.0 mg/kg/injection, schedule: Q04DX003 (ip), vehicle: saline with Tween-80 109 % of control and 113 % of control | [11] 108 % of control

CCCCCCCCCCCCCCCC(=O)OCc1cc(=O)c(O)co1
inactive: [10] 118 % of control | [1] 104 % of control | dose: 200.0 mg/kg/injection, schedule: Q01DX009 (ip), vehicle: Klucel (hydroxypropylcellulose) (HPC) 109 % of control | [2] 104 % of control | dose: 400.0 mg/kg/injection, schedule: Q01DX009 (ip), vehicle: Klucel (hydroxypropylcellulose) (HPC) 95 % of control | [6] 113 % of control

CCCCCCCC(=O)Nc1c(C)cc(C)cc1C
inactive: [11] 109 % of control | [12] 100 % of control | [13] 109 % of control

COc1cc(C(Cc2ccnc3ccccc23)Cc2ccnc3ccccc23)ccc1N(C)C
inactive: [11] 91 % of control | [12] 104 % of control | [13] 115 % of control

Cc1cccc(/C=N/Nc2ccccn2)n1
inactive: dose: 50.0 mg/kg/injection, schedule: Q01DX005 (ip), vehicle: saline with Tween-80 108 % of control | dose: 100.0 mg/kg/injection, schedule: Q01DX005 (ip), vehicle: saline with Tween-80 118 % of control

O=C(O)c1csc(-c2csc(CCNC(=O)C(F)(F)F)n2)n1
inactive: [3] 94 % of control | [4] 93 % of control | [5] 103 % of control

CC(C)([NH-])CO.CC(C)([NH-])CO.[Cl][Cd][Cl]
inactive: dose: 5.0 mg/kg/injection, schedule: Q01DX009 (ip), vehicle: saline 120 % of control | dose: 6.25 mg/kg/injection, schedule: Q04DX003 (ip), vehicle: saline sonified 104 % of control | dose: 10.0 mg/kg/injection, schedule: Q01DX009 (ip), vehicle: saline 120 % of control | dose: 10.0 mg/kg/injection, schedule: Q04DX003 (ip), vehicle: saline 109 % of control | dose: 12.5 mg/kg/injection, schedule: Q04DX003 (ip), vehicle: saline sonified 108 % of control | dose: 20.0 mg/kg/injection, schedule: Q04DX003 (ip), vehicle: saline 95 % of control

CCCCOC1CC2c3ccccc3C1c1cccc[n+]12 (stereo not drawn)
inactive: dose: 6.25 mg/kg/injection, schedule: Q01DX009 (ip), vehicle: saline 95 % of control | [14] 109 % of control | dose: 18.75 mg/kg/injection, schedule: Q04DX003 (ip), vehicle: saline 100 % of control | [15] 122 % of control | dose: 37.5 mg/kg/injection, schedule: Q04DX003 (ip), vehicle: saline 95 % of control

C/C(CC(c1ccccc1)N1CCc2ccccc2C1)=N/O (stereo not drawn)
inactive: dose: 100.0 mg/kg/injection, schedule: Q04DX003 (ip), vehicle: saline sonified 104 % of control | dose: 200.0 mg/kg/injection, schedule: Q04DX003 (ip), vehicle: saline sonified 109 % of control | dose: 400.0 mg/kg/injection, schedule: Q04DX003 (ip), vehicle: saline sonified 90 % of control

CNC(=O)c1nc(C)c(C)nc1OCc1ccccc1
inactive: [14] 100 % of control | [15] 95 % of control and 124 % of control | dose: 50.0 mg/kg/injection, schedule: Q01DX009 (ip), vehicle: saline 97 % of control and 111 % of control | dose: 50.0 mg/kg/injection, schedule: Q04DX003 (ip), vehicle: saline 111 % of control | [8] 106 % of control and 109 % of control | [7] 100 % of control | [9] 91 % of control | dose: 200.0 mg/kg/injection, schedule: Q04DX003 (ip), vehicle: saline 96 % of control | dose: 300.0 mg/kg/injection, schedule: Q01DX009 (ip), vehicle: saline 97 % of control | dose: 400.0 mg/kg/injection, schedule: Q01DX009 (ip), vehicle: saline 119 % of control | dose: 400.0 mg/kg/injection, schedule: Q04DX003 (ip), vehicle: saline 88 % of control

O=[N+]([O-])/C=C/c1ccccc1Cl
inactive: dose: 2.2 mg/kg/injection, schedule: Q01DX009 (ip), vehicle: other 110 % of control | dose: 3.3 mg/kg/injection, schedule: Q01DX009 (ip), vehicle: other 119 % of control | dose: 5.0 mg/kg/injection, schedule: Q01DX009 (ip), vehicle: other 122 % of control | dose: 6.6 mg/kg/injection, schedule: Q04DX003 (ip), vehicle: other 109 % of control | dose: 7.5 mg/kg/injection, schedule: Q01DX009 (ip), vehicle: other 115 % of control | dose: 10.0 mg/kg/injection, schedule: Q04DX003 (ip), vehicle: other 104 % of control | dose: 37.5 mg/kg/injection, schedule: Q01DX009 (sc), vehicle: olive oil, sesame oil, peanut oil 100 % of control | dose: 37.5 mg/kg/injection, schedule: Q04DX003 (sc), vehicle: olive oil, sesame oil, peanut oil 95 % of control | dose: 75.0 mg/kg/injection, schedule: Q01DX009 (sc), vehicle: olive oil, sesame oil, peanut oil 109 % of control | dose: 75.0 mg/kg/injection, schedule: Q04DX003 (sc), vehicle: olive oil, sesame oil, peanut oil 90 % of control | dose: 150.0 mg/kg/injection, schedule: Q01DX009 (sc), vehicle: olive oil, sesame oil, peanut oil 100 % of control | dose: 150.0 mg/kg/injection, schedule: Q04DX003 (sc), vehicle: olive oil, sesame oil, peanut oil 104 % of control
